From patent publication US20260022143A1, “Cyclic Peptide Inhibitors of IL-23” (JANSSEN PHARMACEUTICA NV, priority 2022, published 2026)
Starred links: 1 amine or outer side, 2 acyl side, 3 side chain; linkers in the order of their positions; H or OH if unused. Positions of bridges follow the written chain, without caps; N, C: chain ends. Non-standard residues stand in square brackets, D forms with d. Residues, ends and D or L forms follow the SMILES beside them. Groups on a side chain read outwards from the residue. *: point of attachment. Me3N+(CH2)2O(CH2)2O(CH2)2CO = C[N+](C)(C)CCOCCOCCC(=O)*; X67 = COCc1cn(-c2ccc(C[C@H](N[*:1])C(=O)[*:2])cc2)nn1; Trp(7-Me) = Cc1cccc2c(C[C@H](N)C(=O)O)c[nH]c12; d(hLys(Me3)) = C[N+](C)(C)CCCCC[C@@H](N)C(=O)O; dLys(Me3) = C[N+](C)(C)CCCC[C@@H](N)C(=O)O; γGlu = O=C(O)[C@H](CCC(=O)[*:2])N[*:1]; 2Nal = N[C@@H](Cc1ccc2ccccc2c1)C(=O)O; Propanoyl(3,3,3-F3) = O=C(CC(F)(F)F)*; AEF = NCCOc1ccc(C[C@H](N)C(=O)O)cc1; X74 = C[N+]1(CCOCCOCC*)CCC(F)(F)CC1; X75 = C[N+](C)(C)CCOCC[N+](C)(C)CC*; X10 = C[N+](C)(C)C[C@H](CC(=O)O)N*; 3Pal = N[C@@H](Cc1cccnc1)C(=O)O; Myristoyl = CCCCCCCCCCCCCC(=O)*; Lys(Me) = CNCCCC[C@H](N)C(=O)O; Pen = CC(C)(S)[C@H](N)C(=O)O; Thp = NC1(C(=O)O)CCOCC1; X3 = C[N+](C)(C)CCCCC*; AEEA = NCCOCCOCC(=O)O; Sar = CNCC(=O)O

Experiment: Exposed Polar Surface Area (EPSA)
Type: physicochemical
Conditions: SFC on Chirex 3014 column; sample 1 mM DMSO stock; read-out: EPSA
In short: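 Chirex 3014 column, 35 °C, 4 mL/min; CO2/MeOH + 20 mM NH4 formate, 5→60% modifier at 20%/min. UV/MS detection. EPSA (Å^2) from retention time vs 8-standard calibration line; duplicates; 1 mM DMSO stock injected undiluted.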

SMILES | EPSA [A^2]
CC(=O)N[C@@H]1C(=O)N[C@@H](CC(=O)N(C)C)C(=O)N[C@@H]([C@@H](C)O)C(=O)N[C@@H](Cc2c[nH]c3c(C)cccc23)C(=O)N[C@@H](COCCOCC[N+](C)(C)C)C(=O)N[C@H](C(=O)N[C@@H](Cc2ccc(OCCOCCOCC[N+](C)(C)C)cc2)C(=O)N[C@@H](Cc2ccc3ccccc3c2)C(=O)NC2(C(=O)N[C@@H](COCCOCC[N+](C)(C)C)C(=O)N[C@@H](CC(N)=O)C(=O)N[C@@H](Cc3cccnc3)C(=O)N(C)CC(=O)N(C)C)CCOCC2)C(C)(C)SSC1(C)C (relative stereo) [compound 256, MeCO-Pen(3)-N(N(Me)2)-T-7MeW-APEG2Ser(S*)-Pen(3)-APEG3F-2Nal-THP-APEG2Ser(S*)-N-3Pya-Sar-CON(Me)2] | 142
CC(=O)NCCCC[C@@H]1NC(=O)[C@H](Cc2c[nH]c3c(C)cccc23)NC(=O)[C@H]([C@@H](C)O)NC(=O)[C@H](CC(N)=O)NC(=O)[C@@H](NC(=O)[C@@H](CCC(=O)N[C@@H](CC(=O)O)C[N+](C)(C)C)NC(C)=O)C(C)(C)SSC(C)(C)[C@@H](C(=O)N[C@@H](Cc2ccc(OCCN)cc2)C(=O)N[C@@H](Cc2ccc3ccccc3c2)C(=O)NC2(C(=O)N[C@@H](CCCCNC(C)=O)C(=O)N[C@@H](CC(N)=O)C(=O)N[C@@H](Cc3cccnc3)C(=O)N(C)CC(N)=O)CCOCC2)NC1=O [compound 126] (Ac-[dE](X10)[Pen]NT[Trp(7-Me)]K(Ac)[Pen][AEF][2Nal][Thp]K(Ac)N[3Pal][Sar]-NH2; disulfide 2-7) | 184
CCCCCCCCCCCCCC(=O)N[C@@H](CCC(=O)NCCOCCOCC(=O)NCCOCCOCC(=O)NCCCC[C@@H]1NC(=O)[C@@H](NC(=O)[C@@H](CCCCC[N+](C)(C)C)NC(=O)COCCOCCNC(=O)COCCOCCNC(=O)CC[C@H](NC(=O)CCCCCCCCCCCCC)C(=O)O)C(C)(C)SSC(C)(C)[C@@H](C(=O)N[C@@H](Cc2ccc(OCCCCC[N+](C)(C)C)cc2)C(=O)N[C@@H](Cc2ccc3ccccc3c2)C(=O)NC2(C(=O)N[C@@H](CCCCN(C)C(C)=O)C(=O)N[C@@H](CC(N)=O)C(=O)N[C@@H](Cc3cccnc3)C(=O)N(C)CC(=O)N(C)C)CCOCC2)NC(=O)[C@H](CCCCN(C)C(C)=O)NC(=O)[C@H](Cc2c[nH]c3c(C)cccc23)NC(=O)[C@H]([C@@H](C)O)NC1=O)C(=O)O [compound 374, C14gEPEG2PEG2CO-hk(Me)3-Pen(3)-K(PEG2PEG2gEC14)-T-7MeW-K(NMeAc)-Pen(3)-TMAPF-2Nal-THP-K(NMeAc)-N-3Pya-Sar-CON(Me)2] ({Myristoyl-γGlu-AEEA-AEEA}-[d(hLys(Me3))][Pen]K([AEEA-AEEA-γGlu-Myristoyl])T[Trp(7-Me)][Lys(Me)](Ac)[Pen]Y(X3)[2Nal][Thp][Lys(Me)](Ac)N[3Pal][Sar]-NMe2; disulfide 2-7) | 170
CC(=O)N(C)CCCC[C@@H]1NC(=O)[C@H](Cc2c[nH]c3c(C)cccc23)NC(=O)[C@H]([C@@H](C)O)NC(=O)[C@H](CC(=O)N(C)C)NC(=O)[C@@H](NC(=O)CCOCCOCC[N+](C)(C)C)C(C)(C)SSC(C)(C)[C@@H](C(=O)N[C@@H](Cc2ccc(OCC[N+](C)(C)CCOCC[N+](C)(C)C)cc2)C(=O)N[C@@H](Cc2ccc3ccccc3c2)C(=O)NC2(C(=O)N[C@@H](CCCCN(C)C(C)=O)C(=O)N[C@@H](CC(N)=O)C(=O)N[C@@H](Cc3cccnc3)C(=O)N(C)CC(=O)N(C)C)CCOCC2)NC1=O [compound 264, cPEG3aCO-Pen(3)-N(N(Me)2)-T-7MeW-K(NMeAc)-Pen(3)-AEF(aPEG2a)-2Nal-THP-K(NMeAc)-N-3Pya-Sar-CON(Me)2] ({Me3N+(CH2)2O(CH2)2O(CH2)2CO}-[Pen]D(NMe2)T[Trp(7-Me)][Lys(Me)](Ac)[Pen]Y(X75)[2Nal][Thp][Lys(Me)](Ac)N[3Pal][Sar]-NMe2; disulfide 1-6) | 151
CC(=O)NCCCC[C@@H]1NC(=O)[C@H](Cc2c[nH]c3c(C)cccc23)NC(=O)[C@H]([C@@H](C)O)NC(=O)[C@H](CC(N)=O)NC(=O)[C@@H](NC(=O)[C@@H](CCCC[N+](C)(C)C)NC(=O)CC(F)(F)F)C(C)(C)SSC(C)(C)[C@@H](C(=O)N[C@@H](Cc2ccc(OCCN)cc2)C(=O)N[C@@H](Cc2ccc3ccccc3c2)C(=O)NC2(C(=O)N[C@@H](CCCCNC(C)=O)C(=O)N[C@@H](CC(N)=O)C(=O)N[C@@H](Cc3cccnc3)C(=O)N(C)CC(N)=O)CCOCC2)NC1=O [compound 144] ({Propanoyl(3,3,3-F3)}-[dLys(Me3)][Pen]NT[Trp(7-Me)]K(Ac)[Pen][AEF][2Nal][Thp]K(Ac)N[3Pal][Sar]-NH2; disulfide 2-7) | 161
COCc1cn(-c2ccc(C[C@H](NC(=O)[C@H]3NC(=O)[C@H](CCCCN(C)C(C)=O)NC(=O)[C@H](Cc4c[nH]c5c(C)cccc45)NC(=O)[C@H]([C@@H](C)O)NC(=O)[C@H](CC(=O)N(C)C)NC(=O)[C@@H](NC(=O)CCOCCOCC[N+](C)(C)C)C(C)(C)SSC3(C)C)C(=O)N[C@@H](Cc3ccc4ccccc4c3)C(=O)NC3(C(=O)N[C@@H](CCCCN(C)C(C)=O)C(=O)N[C@@H](CC(N)=O)C(=O)N[C@@H](Cc4cccnc4)C(=O)N(C)CC(=O)N(C)C)CCOCC3)cc2)nn1 [compound 303, cPEG3aCO-Pen(3)-N(N(Me)2)-T-7MeW-K(NMeAc)-Pen(3)-F(4TzlMME)-2Nal-THP-K(NMeAc)-N-3Pya-Sar-CON(Me)2] ({Me3N+(CH2)2O(CH2)2O(CH2)2CO}-[Pen]D(NMe2)T[Trp(7-Me)][Lys(Me)](Ac)[Pen][X67][2Nal][Thp][Lys(Me)](Ac)N[3Pal][Sar]-NMe2; disulfide 1-6) | 152
CC(=O)N(C)CCCC[C@@H]1NC(=O)[C@H](Cc2c[nH]c3c(C)cccc23)NC(=O)[C@H]([C@@H](C)O)NC(=O)[C@H](CC(=O)N(C)C)NC(=O)[C@@H](NC(=O)CCOCCOCC[N+](C)(C)C)C(C)(C)SSC(C)(C)[C@@H](C(=O)N[C@@H](Cc2ccc(OCCOCCOCC[N+]3(C)CCC(F)(F)CC3)cc2)C(=O)N[C@@H](Cc2ccc3ccccc3c2)C(=O)NC2(C(=O)N[C@@H](CCCCN(C)C(C)=O)C(=O)N[C@@H](CC(N)=O)C(=O)N[C@@H](Cc3cccnc3)C(=O)N(C)CC(=O)N(C)C)CCOCC2)NC1=O [compound 298, cPEG3aCO-Pen(3)-N(N(Me)2)-T-7MeW-K(NMeAc)-Pen(3)-dFPPEG3F-2Nal-THP-K(NMeAc)-N-3Pya-Sar-CON(Me)2] ({Me3N+(CH2)2O(CH2)2O(CH2)2CO}-[Pen]D(NMe2)T[Trp(7-Me)][Lys(Me)](Ac)[Pen]Y(X74)[2Nal][Thp][Lys(Me)](Ac)N[3Pal][Sar]-NMe2; disulfide 1-6) | 149
CCCCCCCCCCCC(=O)N[C@@H](CCC(=O)NCCOCCOCC(=O)NCCOCCOCC(=O)NC(COCCOCC[N+](C)(C)C)C(=O)N[C@@H]1C(=O)N[C@@H](CC(=O)N(C)C)C(=O)N[C@@H]([C@@H](C)O)C(=O)N[C@@H](Cc2c[nH]c3c(C)cccc23)C(=O)N[C@@H](CCCCN(C)C(C)=O)C(=O)N[C@H](C(=O)N[C@@H](Cc2ccc(OCCOCCOCC[N+](C)(C)C)cc2)C(=O)N[C@@H](Cc2ccc3ccccc3c2)C(=O)NC2(C(=O)N[C@@H](CCCCN(C)C(C)=O)C(=O)N[C@@H](CC(N)=O)C(=O)N[C@@H](Cc3cccnc3)C(=O)N(C)CC(=O)N(C)C)CCOCC2)C(C)(C)SSC1(C)C)C(=O)O (relative stereo) [compound 366, C12gEPEG2PEG2CO-APEG2Ser(S*)-Pen(3)-N(N(Me)2)-T-7MeW-K(NMeAc)-Pen(3)-APEG3F-2Nal-THP-K(NMeAc)-N-3Pya-Sar-CON(Me)2] | 162
